Measurements: ChEMBL document CHEMBL1201862, “PubChem BioAssay data set” (2004)
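Five compound concentrations were applied to cells in 96-well plates for 48 hours; endpoints were derived by simple linear interpolation of the resulting dose-response curve. GI50 marks 50% less growth.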 Activity calls are given as the source filed them. Rule as the data show it: active = GI50 up to about 1.1 µM and inactive = higher.

Key:
Test in all cases: inhibition of tumour cell growth, NCI panel, 48 h
786-0 = test system: 786-0
COLO 205 = test system: COLO 205
HOP-62 = test system: HOP-62
LOX IMVI = test system: LOX IMVI
MDA-MB-231 = test system: MDA-MB-231
NCI-H226 = test system: NCI-H226
NCI-H460 = test system: NCI-H460
NCI/ADR-RES = test system: NCI/ADR-RES
SK-MEL-2 = test system: SK-MEL-2
SNB-19 = test system: SNB-19
SR = test system: SR
SW-620 = test system: SW-620
TK-10 = test system: TK-10
Hs-578T = test system: Hs-578T
MDA-MB-435 = test system: MDA-MB-435
OVCAR-3 = test system: OVCAR-3
SK-OV-3 = test system: SK-OV-3
T47D = test system: T47D
UO-31 = test system: UO-31

Measured: GI50

CC1(C)OCC(COC(=O)NCn2cc(-c3ccccc3)nn2)O1 (stereo not drawn)
inactive: 786-0 > 100 µM | COLO 205 > 100 µM | HOP-62 > 100 µM | LOX IMVI > 100 µM | MDA-MB-231 > 100 µM | NCI-H226 > 100 µM | NCI-H460 > 100 µM | NCI/ADR-RES > 100 µM | SK-MEL-2 > 100 µM | SNB-19 > 100 µM | SR > 100 µM | SW-620 > 100 µM | TK-10 > 100 µM

C=C1N(C=O)C(C)(C)N(O)C1(C)C
inactive: 786-0 > 100 µM | COLO 205 > 100 µM | HOP-62 > 100 µM | Hs-578T > 100 µM | LOX IMVI > 100 µM | MDA-MB-231 > 100 µM | MDA-MB-435 > 100 µM | NCI-H226 > 100 µM | NCI-H460 > 100 µM | NCI/ADR-RES > 100 µM | OVCAR-3 > 100 µM | SK-MEL-2 > 100 µM | SK-OV-3 > 100 µM | SNB-19 > 100 µM | SW-620 > 100 µM | T47D > 100 µM | TK-10 > 100 µM | UO-31 > 100 µM

O=C(CCC1C(=O)NC(=S)NC1=O)c1ccc2ccccc2c1
inactive: 786-0 > 100 µM | COLO 205 > 100 µM | HOP-62 > 100 µM | LOX IMVI > 100 µM | NCI-H226 > 100 µM | NCI-H460 > 100 µM | OVCAR-3 > 100 µM | SK-MEL-2 > 100 µM | SK-OV-3 > 100 µM | SNB-19 > 100 µM | SR > 100 µM | SW-620 > 100 µM | TK-10 > 100 µM | UO-31 > 100 µM

COc1cccc2c1C(=O)c1c(O)c3c(c(O)c1C2=O)CC(O)(C(C)=O)CC3OC1OC(COC(C)=O)C(OC(C)=O)C(OC(C)=O)C1OC(C)=O (stereo not drawn)
inactive: 786-0 12.1 µM | COLO 205 79.4 µM | HOP-62 10.2 µM | Hs-578T 14.5 µM | LOX IMVI 29.9 µM | MDA-MB-231 17.7 µM | MDA-MB-435 88.7 µM | NCI-H460 > 100 µM | NCI/ADR-RES > 100 µM | OVCAR-3 14 µM | SK-MEL-2 55.7 µM | SK-OV-3 32.7 µM | SNB-19 16 µM | SR 5.38 µM | SW-620 > 100 µM | T47D 38.8 µM | TK-10 22.9 µM | UO-31 > 100 µM

CN(C)c1ccc(/C=C2\Oc3cc(O)ccc3C2=O)cc1
inactive: 786-0 > 100 µM | COLO 205 > 100 µM | HOP-62 > 100 µM | Hs-578T > 100 µM | MDA-MB-231 53.1 µM | MDA-MB-435 36.9 µM | NCI-H226 > 100 µM | NCI-H460 80.5 µM | NCI/ADR-RES 83.4 µM | OVCAR-3 38.7 µM | SK-OV-3 > 100 µM | SNB-19 > 100 µM | SR 52 µM | SW-620 48.9 µM | T47D > 100 µM | TK-10 > 100 µM | UO-31 > 100 µM

COc1ccc2cc(C(=O)c3ccccc3C(=O)O)ccc2c1
inactive: 786-0 > 100 µM | COLO 205 > 100 µM | HOP-62 > 100 µM | LOX IMVI > 100 µM | NCI-H226 > 100 µM | NCI-H460 > 100 µM | OVCAR-3 > 100 µM | SK-MEL-2 > 100 µM | SK-OV-3 > 100 µM | SNB-19 > 100 µM | SR > 100 µM | SW-620 > 100 µM | TK-10 > 100 µM | UO-31 > 100 µM

CC(=O)NC1C(=O)CC(c2ccccc2)N(C)C1c1ccccc1 (stereo not drawn)
inactive: 786-0 > 100 µM | COLO 205 > 100 µM | HOP-62 > 100 µM | LOX IMVI 6.17 µM | NCI-H226 > 100 µM | NCI-H460 > 100 µM | OVCAR-3 > 100 µM | SK-MEL-2 > 100 µM | SK-OV-3 26.3 µM | SNB-19 > 100 µM | SR > 100 µM | SW-620 > 100 µM | TK-10 > 100 µM | UO-31 94.8 µM
